Test results reported in ChEMBL document CHEMBL1150255, “Spongian diterpenes with thyrotropin releasing hormone receptor 2 binding affinity from Spongia sp” (J Nat Prod, 2008).

Each molecule was assayed against T1, Thyrotropin-releasing hormone receptor 2 (Rattus norvegicus, UniProt A6IZR3) (assay: Displacement of [3H]3-methylhistidyl-TRH from rat recombinant TRHR2 expressed in […] cells).
T1 sequence (A6IZR3 whole entry): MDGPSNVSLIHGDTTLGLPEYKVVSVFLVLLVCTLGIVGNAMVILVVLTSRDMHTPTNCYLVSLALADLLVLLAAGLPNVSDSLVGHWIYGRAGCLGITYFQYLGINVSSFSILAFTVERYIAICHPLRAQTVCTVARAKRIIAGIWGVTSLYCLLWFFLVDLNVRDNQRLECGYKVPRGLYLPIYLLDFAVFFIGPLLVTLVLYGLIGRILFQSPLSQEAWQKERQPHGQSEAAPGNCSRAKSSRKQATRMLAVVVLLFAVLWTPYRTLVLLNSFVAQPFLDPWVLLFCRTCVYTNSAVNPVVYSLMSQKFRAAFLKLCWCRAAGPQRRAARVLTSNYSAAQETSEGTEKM
Type: cell-based

Structure (SMILES)	IC50 [µM]
NC(=O)[C@@H]1CCCN1C(=O)[C@H](Cc1cnc[nH]1)NC(=O)[C@@H]1CCC(=O)N1 [PROTIRELIN]	0.023
CC1(C)CCC[C@]2(C)[C@H]3CCc4cocc4[C@]3(C)CC[C@@H]12	1000
C[C@]1(CO)CCC[C@]2(CO)[C@H]3CCc4cocc4[C@]3(C)CC[C@@H]12	600

Further molecules by falling IC50, results first:

IC50 [µM]	Structure (SMILES)
400	CC(=O)OC[C@@]1(C)CCC[C@]2(COC(C)=O)[C@H]3CCc4cocc4[C@]3(C)CC[C@@H]12
70	CC(=O)OC[C@@]1(C)CCC[C@]2(CO)[C@H]3CCc4cocc4[C@]3(C)CC[C@@H]12
23	CC(=O)OC[C@]12CCC[C@](C)(CO)[C@@H]1CC[C@@]1(C)c3cocc3CC[C@H]21
